Assay results as given in ChEMBL document CHEMBL1201862, “PubChem BioAssay data set” (2004).
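All cell lines were grown in 96-well plates and treated with compound for 48 hours. GI50 = concentration required for 50% inhibition of growth.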 Calls of active or inactive are those of the source. Rule as the data show it: active = GI50 up to about 1.1 µM and inactive = higher.

Tests used:
Assay in all cases: NCI anticancer screen, dose series, 48 h
LOX IMVI = tested on: LOX IMVI
CCRF-CEM = tested on: CCRF-CEM
NCI-H226 = tested on: NCI-H226
UACC-257 = tested on: UACC-257
SF-295 = tested on: SF-295
OVCAR-8 = tested on: OVCAR-8
KM12 = tested on: KM12
CAKI-1 = tested on: CAKI-1
IGROV-1 = tested on: IGROV-1
U-251 = tested on: U-251
SK-MEL-2 = tested on: SK-MEL-2
UACC-62 = tested on: UACC-62
COLO 205 = tested on: COLO 205
SR = tested on: SR
MDA-N = tested on: MDA-N
OVCAR-5 = tested on: OVCAR-5
K562 = tested on: K562
HOP-62 = tested on: HOP-62
NCI-H23 = tested on: NCI-H23

Measured: GI50

N#CC1(C#N)[C@@H]2CCC=C(Sc3ccccc3)[C@@H]21
inactive: LOX IMVI 13.9 µM | CCRF-CEM 5.71 µM | NCI-H226 13.9 µM | UACC-257 17.5 µM | SF-295 16.5 µM | OVCAR-8 16 µM | KM12 14.9 µM | CAKI-1 13.6 µM | IGROV-1 19.8 µM | U-251 16.1 µM | SK-MEL-2 14.6 µM | UACC-62 18.4 µM | COLO 205 17.3 µM | SR 13.1 µM | MDA-N 13.9 µM | OVCAR-5 17.8 µM | K562 6.71 µM

CN(CCC(=O)N1CC(CCl)c2ccc([N+](=O)[O-])cc21)CCC(=O)N1CC(CCl)c2ccc([N+](=O)[O-])cc21 (configuration not stated)
inactive: LOX IMVI 7.87 µM | HOP-62 33.7 µM | CCRF-CEM 15.9 µM | NCI-H226 6.95 µM | UACC-257 9.2 µM | SF-295 13.7 µM | OVCAR-8 14.3 µM | KM12 4.72 µM | CAKI-1 18.7 µM | U-251 24.2 µM | SK-MEL-2 13.2 µM | UACC-62 12.3 µM | COLO 205 15.4 µM | SR 1.77 µM | MDA-N 15 µM | OVCAR-5 > 100 µM | NCI-H23 14.7 µM | K562 14.3 µM

COc1ccc(C=O)cc1Oc1ccc(C[C@H]2c3c(cc(OC)c4c3Oc3cc5c(cc3O4)CCN(C)C5=O)CCN2C)cc1
inactive: LOX IMVI 9.29 µM | HOP-62 8.32 µM | CCRF-CEM 10 µM | NCI-H226 8.59 µM | UACC-257 8.04 µM | SF-295 7.41 µM | OVCAR-8 7.87 µM | KM12 8.91 µM | CAKI-1 18.7 µM | IGROV-1 7.16 µM | U-251 9.51 µM | SK-MEL-2 11.5 µM | COLO 205 20.8 µM | SR 9.38 µM | MDA-N 8.67 µM | OVCAR-5 12.1 µM | NCI-H23 7.14 µM | K562 6.05 µM

Oc1ccc(O)c(CNc2ccc(C(O)C(F)(F)F)cc2)c1 (configuration not stated)
inactive: LOX IMVI 14.2 µM | HOP-62 15.6 µM | CCRF-CEM 3.21 µM | NCI-H226 18.4 µM | UACC-257 18.4 µM | SF-295 16.4 µM | OVCAR-8 10.4 µM | CAKI-1 16 µM | IGROV-1 12.9 µM | U-251 35.8 µM | SK-MEL-2 20.1 µM | UACC-62 15.7 µM | COLO 205 18.5 µM | SR 6.3 µM | MDA-N 9.86 µM | OVCAR-5 20.5 µM | NCI-H23 21.4 µM | K562 11.9 µM

O=C(/N=C1/NCC(CN2CCN(c3ccccc3)CC2)O1)Nc1ccccc1 (configuration not stated)
inactive: LOX IMVI > 100 µM | HOP-62 > 100 µM | CCRF-CEM > 100 µM | NCI-H226 > 100 µM | UACC-257 > 100 µM | SF-295 > 100 µM | KM12 > 100 µM | CAKI-1 > 100 µM | IGROV-1 > 100 µM | U-251 > 100 µM | SK-MEL-2 > 100 µM | UACC-62 > 100 µM | COLO 205 > 100 µM | SR > 100 µM | MDA-N > 100 µM | OVCAR-5 > 100 µM | NCI-H23 > 100 µM | K562 > 100 µM

COC(=O)c1c(C)cccc1/C=C1\Cc2ccc(C)c(C)c2C1=O
inactive: LOX IMVI > 100 µM | HOP-62 41.7 µM | CCRF-CEM > 10 µM | NCI-H226 > 100 µM | UACC-257 > 100 µM | SF-295 > 100 µM | OVCAR-8 > 100 µM | KM12 > 100 µM | CAKI-1 > 100 µM | IGROV-1 > 100 µM | U-251 48.9 µM | SK-MEL-2 > 100 µM | UACC-62 14.5 µM | SR 8.39 µM | MDA-N > 100 µM | OVCAR-5 > 100 µM | NCI-H23 > 100 µM | K562 8.32 µM
